The values that follow come from patent US20250345492A1, “AN ANTIBACTERIAL POLYPEPTIDE COMPOUND, A MEDICAL DEVICE, HYDROGEL AND USE THEREOF” (priority 2020, published 2025).

The test system of experiment [1] is E. coli ML-35 (ATCC 43837). Put plainly: Inner membrane permeability, ONPG / β-galactosidase release. It is filed as cell-based. The settings on record: 1×MIC to 8×MIC, 90 min. Here is the method: The effect on the integrity of bacterial […] was determined by determining the release amount of β-galactosidase from E. coli ML-35 (ATCC 43837) with ONPG (o-nitrobenzene-β-D-galactoside), thereby detecting the effect of the compounds on the permeability of E. coli IM.
Taking compounds 2, 8, 9, 13 and 15 of the present invention as examples, the IM permeability of E. coli with the presence of the antibacterial polypeptide compounds was analyzed. E. coli ML-35 cells were washed twice with PBS solution and resuspended in 0.9% sodium chloride solution. […] The cells were detected at 420 nm once every 5 mins using a multifunctional ELISA reader within a 90-min period of time.

Experiment [2] deals with E. coli (ATCC 25922). In words: Outer membrane permeability, NPN probe. Conditions: 1×MIC to 8×MIC, NPN fluorescence, 15 min. It is filed as cell-based. On the procedure: The destruction of bacterial cell OM was determined by using hydrophobic fluorescent probe NPN (1-N-phenylnaphthylamine) to determine the effect of the compounds on the OM permeability of E. coli (ATCC 25922).
Taking compounds 2, 8, 9, 13 and 15 of the present invention as examples, the OM permeability of E. coli with the presence of the antibacterial polypeptide compounds was analyzed. E. coli cells were washed twice with PBS solution and resuspended in 5 mM HEPES (pH 7.2), and then diluted to a concentration of […]. […] The excitation wavelength and emission wavelength were set to 350 nm and 420 nm, separately, and the cells were detected once every minute using a multifunctional ELISA reader within a 15-min period of time.

Experiment [3] relates to E-2b, clinical isolated drug-resistant strain ESBL. The settings on record: strain E-2b (ESBL). The method in brief:
(§1)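 Log-phase cells grown in MH (bacteria) or SD (fungi) medium at 37 °C were plated at 1×10^5 CFU/ml with 2-fold serially diluted peptide (1-256 μM solutions added at twice final concentration). After 12 h at 37 °C, MIC was taken as the first clear well by eye, in triplicate.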

The subject of experiment [4] is Staphylococcus epidermidis (ATCC 12228). The settings on record: standard strain. The gist of the method:
as §1

For the next experiment, the system named is C. krusei ATCC6258. Conditions: fungus. The gist of the method:
as §1

Experiment [5] has as its system Pseudomonas aeruginosa (ATCC 27853). Conditions: standard strain. The gist of the method: as §1
For experiment [6], the system named is P-1c, clinical isolated drug-resistant strain PA. Conditions: strain P-1c (PA). The method in brief:
as §1

The test system of experiment [7] is E-1b, clinical isolated drug-resistant strain ESBL. Conditions: strain E-1b (ESBL). The method in brief:
as §1

A further experiment relates to C. tropicalis ATCC750. The settings on record: fungus. The gist of the method:
as §1

The next experiment concerns C. glabrata ATCC22019. Conditions: fungus. The gist of the method:
as §1

The subject of experiment [8] is S-3a, clinical isolated drug-resistant strain MRSA. The settings on record: strain S-3a (MRSA). The method in brief:
as §1

The subject of another experiment is C. albicans ATCC14053. The settings on record: fungus. The method in brief:
as §1

For experiment [9], the system named is S-2a, clinical isolated drug-resistant strain MRSA. The settings on record: strain S-2a (MRSA). The gist of the method:
as §1

The subject of experiment [10] is P-4c, clinical isolated drug-resistant strain PA. The settings on record: strain P-4c (PA). The gist of the method:
as §1

For experiment [11], the system named is Cronobacter sakazakii (ATCC 29544). The settings on record: standard strain. The gist of the method: as §1
For experiment [12], the system named is P-3c, clinical isolated drug-resistant strain PA. The settings on record: strain P-3c (PA). The gist of the method:
as §1

Experiment [13] has as its system E-4b, clinical isolated drug-resistant strain ESBL. Conditions: strain E-4b (ESBL). The gist of the method:
as §1

Another experiment relates to C. parapsilosis ATCC2001. The settings on record: fungus. The gist of the method: as §1
Experiment [14] deals with P-5c, clinical isolated drug-resistant strain PA. Conditions: strain P-5c (PA). The gist of the method:
as §1

The test system of experiment [15] is E. coli (ATCC 25922). The settings on record: standard strain. The method in brief: as §1
The test system of experiment [16] is S-4a, clinical isolated drug-resistant strain MRSA. The settings on record: strain S-4a (MRSA). The gist of the method:
as §1

For experiment [17], the system named is E-3b, clinical isolated drug-resistant strain ESBL. The settings on record: strain E-3b (ESBL). The method in brief: as §1
The subject of experiment [18] is E-5b, clinical isolated drug-resistant strain ESBL. The settings on record: strain E-5b (ESBL). The gist of the method:
as §1

Ends that are not written are not given here.

For the substance “Pro-Phe-Lys-Leu-Ser-Leu-His-Leu-NH2 (PFKLSLHL-NH2) [Compound J-1, reference compound]”, the “IM permeability of E. coli” value in experiment [1] is given as “destroying the integrity of the E. coli IM in a dose-dependent manner”. In the experiment with E. coli (ATCC 25922) [2], the “OM permeability of E. coli” value is recorded as “destroy the integrity of the E. coli OM in a dose-dependent manner”. The MIC is 32 µM in experiment [3]; 32 µM in experiment [6]; 32 µM in experiment [7]; 128 µM in experiment [8]; 128 µM in experiment [9]; 32 µM in [10]. The MIC in experiment [12] was 32 µM; in experiment [13], 32 µM; in [14] it was 32 µM; in experiment [16] it was 128 µM; in experiment [17] it was 32 µM; in [18] it was 32 µM. Also, the “MIC S. epidermidis ATCC12228” value in experiment [4] was 64 µM. The “MIC C. krusei ATCC6258” value against C. krusei ATCC6258 was determined as 32 µM. The “MIC P. aerugmosa ATCC27853” value in experiment [5] came out at 32 µM. In addition, in the experiment on C. tropicalis ATCC750, the “MIC C. tropicalis ATCC750” value was found to be 16 µM. Moreover, the “MIC C. glabrata ATCC22019” value in the experiment on C. glabrata ATCC22019 is 64 µM. Moreover, the “MIC C. albicans ATCC14053” value with C. albicans ATCC14053 stood at 64 µM. In addition, the “MIC C. sakazakii ATCC29544” value in experiment [11] was 64 µM. Also, the “MIC C. parapsilosis ATCC2001” value in the experiment with C. parapsilosis ATCC2001 worked out at 32 µM. For the same substance, the “MIC C. coli ATCC25922” value with E. coli (ATCC 25922) [15] worked out at 32 µM.
Take “Pro-Trp-Orn-Leu-Orn-Leu-His-Leu-NH2 (PWXLXLHL; HELM PEPTIDE1{P.W.[Orn].L.[Orn].L.H.L.[am]}$$$$V2.0; N-terminus assumed; SMILES CC(C)C[C@H](NC(=O)[C@H](Cc1c[nH]cn1)NC(=O)[C@H](CC(C)C)NC(=O)[C@H](CCCN)NC(=O)[C@H](CC(C)C)NC(=O)[C@H](CCCN)NC(=O)[C@H](Cc1c[nH]c2ccccc12)NC(=O)[C@@H]1CCCN1)C(N)=O) [Compound 9]”: the “IM permeability of E. coli” value in experiment [1] is “destroying the integrity of the E. coli IM in a dose-dependent manner”. The “OM permeability of E. coli” value in the experiment with E. coli (ATCC 25922) [2] was “destroy the integrity of the E. coli OM in a dose-dependent manner”. For the same substance, the MIC in experiment [3] is 8 µM; in experiment [6] it was 8 µM; in experiment [7], 8 µM; in experiment [8] it was 64 µM; in [9], 64 µM; in [10], 8 µM. Moreover, the MIC in experiment [12] came out at 8 µM; in experiment [13], 8 µM; in [14] it was 8 µM; in experiment [16], 64 µM; in experiment [17] it was 8 µM; in experiment [18], 8 µM. For the same substance, the “MIC S. epidermidis ATCC12228” value in experiment [4] turned out to be 32 µM. Besides, in the experiment on C. krusei ATCC6258, the “MIC C. krusei ATCC6258” value was found to be 64 µM. The “MIC P. aerugmosa ATCC27853” value in experiment [5] stood at 8 µM. For the same substance, in the experiment with C. tropicalis ATCC750, the “MIC C. tropicalis ATCC750” value was 16 µM. For the same substance, the “MIC C. glabrata ATCC22019” value with C. glabrata ATCC22019 stood at 16 µM. In addition, in the experiment with C. albicans ATCC14053, the “MIC C. albicans ATCC14053” value is 32 µM. Also, in experiment [11], the “MIC C. sakazakii ATCC29544” value turned out to be 16 µM. Also, in the experiment on C. parapsilosis ATCC2001, the “MIC C. parapsilosis ATCC2001” value was determined as 16 µM. Further, the “MIC C. coli ATCC25922” value with E. coli (ATCC 25922) [15] came to 8 µM.
